# Assay results reported in patent US10100056B2, “SHIP1 modulators and methods related thereto” (Aquinox Pharmaceuticals (Canada) Inc., priority 2013, dated 2018).
# Tested on: Akt phosphorylation in Molt-4 (PTEN-/SHIP1+) cells
# Assay: Akt phosphorylation in lymphocytes (Western blot, IGF-1 stimulated)
# Assay type: cell-based
# Design: key: +: inhibits Akt phosphorylation at 30 μM; −: no effect on Akt phosphorylation at 30 μM
# Conditions: 30 μM; Molt-4 (SHIP1+) cells, IGF-1 100 ng/mL
# Description: Molt-4 (PTEN-/SHIP1+) cells are starved in serum free RPMI for overnight. In a 15 mL conical tube, 2-3 million serum starved cells (1 million cells per mL) are treated with various concentrations of test compound ([…]) for 30 min at 37° C. followed by stimulation with 100 ng/mL of IGF-1 for 1 hour at 37° C. After stimulation, cells are washed once with ice-cold DPBS and lysed with Lysis Buffer (20 mM Tris-HCl, pH 7.5, 140 mM NaCl, 1% NP-40, Complete Mini Protease Inhibitor Cocktail, 10 mM NaF, 1 mM Na3VO4, 1 mM β-glycerolphosphate) on ice for 30 min with vortexing every 10 min. Samples are then centrifuged at 13,000 rpm for 20 min, and supernatants are collected as total cell lysate samples. Protein concentration is determined using bicinchonic acid assay, and about 15 μg of total protein from each sample is loaded and separated on a 4-12% Tris-Glycine gel. After SDS-PAGE, proteins are transferred from the gel to a nitrocellulose membrane. The membrane is blocked in 5% BSA in PBS containing 0.1% Tween-20 (PBS-T) for 1 hour at room temperature before probing with primary antibodies for overnight at 4° C. The following antibodies are used: mouse anti-SHIP1 (1:500 dilution; Santa Cruz, Calif., USA), rabbit anti-phospho-Akt (Ser473) (1:1000 dilution; Cell Signaling Technologies, MA, USA), rabbit anti-Akt (1:1000; Cell Signaling Technologies, MA, USA), and rabbit anti-actin (1:2000; Cell Signaling Technologies, MA, USA). The membrane is then incubated with goat anti-rabbit or anti-mouse secondary antibodies (1:3000) for 1 hour at room temperature. Target proteins on the membrane are detected with ECL solution and exposed on a film.
row,Compound,Molt-4 (SHIP+): inhibition of Akt phosphorylation
1,"CN(C)C[C@H]1C2=C(CC[C@@H]1[C@@]1(C)CC[C@H](O)C[C@@H]1CO)C(C)(C)CC2 [Cpd. No. 3, (1S,3S,4R)-4-((4R,5S)-4-((dimethylamino)methyl)-1,1-dimethyl-2,3,4,5,6,7-hexahydro-1H-inden-5-yl)-3-(hydroxymethyl)-4-methylcyclohexanol]",+
2,"C=C1CC[C@H]2[C@H](O)[C@@H]([C@@]3(C)CC[C@H](O)C[C@@H]3CCN3CCCC3)CC[C@]12C [Cpd. No. 11, (3aR,4R,5R,7aS)-5-((1S,2S,4S)-4-hydroxy-1-methyl-2-(2-(pyrrolidin-1-yl)ethyl)cyclohexyl)-7a-methyl-1-methyleneoctahydro-1H-inden-4-ol]",+
3,"C=C1CC[C@H]2[C@H](CNC(=O)C(C)(C)C)[C@@H]([C@@]3(C)CC[C@H](O)C[C@@H]3CO)CC[C@]12C [Cpd. No. 20, N-(((3aS,4R,5S,7aS)-5-((1R,2S,4S)-4-hydroxy-2-(hydroxymethyl)-1-methylcyclohexyl)-7a-methyl-1-methyleneoctahydro-1H-inden-4-yl)methyl)pivalamide]",+
4,"C=C1CC[C@H]2[C@H](CNC(=O)C(C)C)[C@@H]([C@@]3(C)CC[C@H](O)C[C@@H]3CO)CC[C@]12C [Cpd. No. 21, N-(((3aS,4R,5S,7aS)-5-((1R,2S,4S)-4-hydroxy-2-(hydroxymethyl)-1-methylcyclohexyl)-7a-methyl-1-methyleneoctahydro-1H-inden-4-yl)methyl)isobutyramide]",+
5,"C=C1CC[C@H]2[C@H](CNC(=O)CC)[C@@H]([C@@]3(C)CC[C@H](O)C[C@@H]3CO)CC[C@]12C [Cpd. No. 22, N-(((3aS,4R,5S,7aS)-5-((1R,2S,4S)-4-hydroxy-2-(hydroxymethyl)-1-methylcyclohexyl)-7a-methyl-1-methyleneoctahydro-1H-inden-4-yl)methyl)propionamide]",+
6,"C=C1CC[C@H]2[C@H](CNC(=O)CCC)[C@@H]([C@@]3(C)CC[C@H](O)C[C@@H]3CO)CC[C@]12C [Cpd. No. 23, N-(((3aS,4R,5S,7aS)-5-((1R,2S,4S)-4-hydroxy-2-(hydroxymethyl)-1-methylcyclohexyl)-7a-methyl-1-methyleneoctahydro-1H-inden-4-yl)methyl)butyramide]",+
7,"C=C1CC[C@H]2[C@H](CNC(=O)CCCC)[C@@H]([C@@]3(C)CC[C@H](O)C[C@@H]3CO)CC[C@]12C [Cpd. No. 24, N-(((3aS,4R,5S,7aS)-5-((1R,2S,4S)-4-hydroxy-2-(hydroxymethyl)-1-methylcyclohexyl)-7a-methyl-1-methyleneoctahydro-1H-inden-4-yl)methyl)pentanamide]",+
8,"C=C1CC[C@H]2[C@H](CCN)[C@@H]([C@@]3(C)CC[C@H](O)C[C@@H]3CO)CC[C@]12C [Cpd. No. 29, (1S,3S,4R)-4-((3aS,4R,5S,7aS)-4-(2-aminoethyl)-7a-methyl-1-methyleneoctahydro-1H-inden-5-yl)-3-(hydroxymethyl)-4-methylcyclohexanol]",+
9,"C=C1CC[C@H]2[C@H](CNCc3cc(OC)cc(OC)c3)[C@@H]([C@@]3(C)CC[C@H](O)C[C@@H]3CO)CC[C@]12C [Cpd. No. 32, (1S,3S,4R)-4-((3aS,4R,5S,7aS)-4-((3,5-dimethoxybenzylamino)methyl)-7a-methyl-1-methyleneoctahydro-1H-inden-5-yl)-3-(hydroxymethyl)-4-methylcyclohexanol]",+
10,"C=C1CC[C@H]2[C@H](CNCc3ccc4c(c3)OCO4)[C@@H]([C@@]3(C)CC[C@H](O)C[C@@H]3CO)CC[C@]12C [Cpd. No. 34, (1S,3S,4R)-4-((3aS,4R,5S,7aS)-4-((benzo[d][1,3]dioxol-5-ylmethylamino)methyl)-7a-methyl-1-methyleneoctahydro-1H-inden-5-yl)-3-(hydroxymethyl)-4-methylcyclohexanol]",+
11,"C=C1CC[C@H]2[C@H](O)[C@@H]([C@@]3(C)CC[C@H](O)C[C@@H]3CCN3CCN(C)CC3)CC[C@]12C [Cpd. No. 48, (3aR,4R,5R,7aS)-5-((1S,2S,4S)-4-hydroxy-1-methyl-2-(2-(4-methylpiperazin-1-yl)ethyl)cyclohexyl)-7a-methyl-1-methyleneoctahydro-1H-inden-4-ol]",+
12,"C=C1CC[C@H]2[C@H](O)[C@@H]([C@@]3(C)CC[C@H](O)C[C@@H]3CCn3ccnc3)CC[C@]12C [Cpd. No. 50, (3aR,4R,5R,7aS)-5-((1S,2S,4S)-2-(2-(1H-imidazol-1-yl)ethyl)-4-hydroxy-1-methylcyclohexyl)-7a-methyl-1-methyleneoctahydro-1H-inden-4-ol]",+
13,"C=C1CC[C@H]2[C@H](O)[C@@H]([C@@]3(C)CC[C@H](O)C[C@@H]3CCOc3ccccn3)CC[C@]12C [Cpd. No. 57, (3aR,4R,5R,7aS)-5-((1S,2S,4S)-4-hydroxy-1-methyl-2-(2-(pyridin-2-yloxy)ethyl)cyclohexyl)-7a-methyl-1-methyleneoctahydro-1H-inden-4-ol]",+
14,"C=C1CC[C@H]2[C@H](CNC(=O)c3ccco3)[C@@H]([C@@]3(C)CC[C@H](O)C[C@@H]3CO)CC[C@]12C [Cpd. No. 81, N-(((3aS,4R,5S,7aS)-5-((1R,2S,4S)-4-hydroxy-2-(hydroxymethyl)-1-methylcyclohexyl)-7a-methyl-1-methyleneoctahydro-1H-inden-4-yl)methyl)furan-2-carboxamide]",+
15,"C=C1CC[C@H]2[C@H](CNC(=O)C3CC3)[C@@H]([C@@]3(C)CC[C@H](O)C[C@@H]3CO)CC[C@]12C [Cpd. No. 82, N-(((3aS,4R,5S,7aS)-5-((1R,2S,4S)-4-hydroxy-2-(hydroxymethyl)-1-methylcyclohexyl)-7a-methyl-1-methyleneoctahydro-1H-inden-4-yl)methyl)cyclopropanecarboxamide]",+
16,"C=C1CC[C@H]2[C@H](CNC(=O)C3CCCCC3)[C@@H]([C@@]3(C)CC[C@H](O)C[C@@H]3CO)CC[C@]12C [Cpd. No. 83, N-(((3aS,4R,5S,7aS)-5-((1R,2S,4S)-4-hydroxy-2-(hydroxymethyl)-1-methylcyclohexyl)-7a-methyl-1-methyleneoctahydro-1H-inden-4-yl)methyl)cyclohexanecarboxamide]",+
17,"C=C1CC[C@H]2[C@H](CNC(=O)NCC)[C@@H]([C@@]3(C)CC[C@H](O)C[C@@H]3CO)CC[C@]12C [Cpd. No. 84, 1-ethyl-3-(((3aS,4R,5S,7aS)-5-((1R,2S,4S)-4-hydroxy-2-(hydroxymethyl)-1-methylcyclohexyl)-7a-methyl-1-methyleneoctahydro-1H-inden-4-yl)methyl)urea]",+
18,"C=C1CC[C@H]2[C@H](CNC(=S)NC)[C@@H]([C@@]3(C)CC[C@H](O)C[C@@H]3CO)CC[C@]12C [Cpd. No. 85, 1-(((3aS,4R,5S,7aS)-5-((1R,2S,4S)-4-hydroxy-2-(hydroxymethyl)-1-methylcyclohexyl)-7a-methyl-1-methyleneoctahydro-1H-inden-4-yl)methyl)-3-methylthiourea]",+
